The record followed here is patent US20190337989A1, “IMMUNITY INDUCER” (priority 2016, published 2019).

“And” between values parts separate entries of the source, which are not always exact repeats. Identical values can stand only once. “Also recorded” adds a separate entry of the source. Like-named read-outs stand apart in the source and are kept apart here.

The test system of assay [1] is avian influenza virus. Also on record: species or system mice. The settings on record: mouse, in vivo, iv.
The subject of assay [2] is avian influenza virus. Set-up: species or system Balb/c mice. The conditions noted are these: mouse, in vivo, ip.

In the case of “Core-[PEG-STQKAID]4 [avian influenza MAP4]”, the “induction of IgG and IgM antibodies against the avian influenza virus” value in the assay on avian influenza virus [1] was “found to be induced; also recorded: enabled induction of IgG and IgM antibodies”. Besides, in the assay on avian influenza virus [2], the IgG concentration entry is on record as “higher than 100 ng/ml”; the “induction of IgG and IgM antibodies against the avian influenza virus” value is “enabled induction of IgG and IgM antibodies”; the “mice in which IgM antibodies were induced” value is 5 out of 5 mice and increased in all mice; the “mice with apparent increase in the IgG level” value is reported as 3 mice out of 5 mice. In addition, in the assay with avian influenza virus [2], the “subclasses exhibiting increased IgG antibody levels” value was “IgG and IgG3; also recorded: IgG1 and IgG3”; the “total level of IgG antibody converted to anti-FLAG antibody” value is 157 ng/mL and 154 ng/mL and 106 ng/mL and 122 ng/mL and 148 ng/mL and 83 ng/mL.
